20 molecules from patent US12514251B2, “Fused heterocyclic compounds and their use as pest control agents” (priority 2020, dated 2026) can be followed below.

By mortality is commonly meant the percentage killed.

Type in all cases: in vivo
Test [1] concerns Spodoptera litura. In words: Spodoptera litura, diet incorporation method. The note with it: third instar larvae, 96 h after release, dead + moribund vs untreated control, read-out: percent mortality. On the procedure: (§1) The diet incorporation method was used, in which the required quantity of the test compound was weighed and dissolved in a tube containing solvent solution. The tube was put on a vortex at 2000 rpm for 90 min for proper mixing. Semi-synthetic diet was incorporated into this solution when the temperature was approximately 50° C. in the bioassay containers. Compound and diet were stirred thoroughly for proper mixing and allowed to cool for 30 min. The solidified diet was cut into equal pieces, and then each piece was transferred into one cell of a bio-assay tray. A single starved third instar larva was released into each of the cells of the bioassay trays and the tray was covered with the lid. The bio-assay trays were then kept under laboratory conditions at a temperature of 25° C. and a relative humidity of 70%. Observations on dead, moribund and alive larvae were recorded 96 h after the release of larvae. Percent mortality was calculated by combining dead and moribund larvae and comparing the result to the one of the untreated control.

The test system of test [2] is Plutella xylostella. Briefly: Plutella xylostella, leaf dip method. The note with it: foliar, cabbage leaf dip, second instar larvae, 72 h after release, dead + moribund vs untreated control, read-out: percent mortality. The essentials: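 Cabbage leaves were dipped for 10 s in compound diluted with 0.01% Triton-X, shade dried and offered singly to second instar larvae. Trays were held at 25° C. and 70% relative humidity. Dead plus moribund larvae were scored at 72 h, and percent mortality was expressed relative to untreated control.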

Test [3] concerns Helicoverpa armigera. Briefly: Helicoverpa armigera, diet incorporation method. The settings on record: third instar larvae, 96 h after release, dead + moribund vs untreated control, read-out: percent mortality. The procedure: as §1, with “covered with a lid. The” for “covered with the lid. The”, “release of the larvae. Percent” for “release of larvae. Percent”

Turning to `CCS(=O)(=O)c1cc(-c2ccc(Cl)cc2)cnc1-c1ccn2nc(C(F)(F)F)nc2n1` [Compound 101, 5-(5-(4-chlorophenyl)-3-(ethylsulfonyl)pyridin-2-yl)-2-(trifluoromethyl)-[1,2,4]triazolo[1,5-a]pyrimidine], the mortality at 300 ppm in test [1] and in test [2] was not below 70% throughout.
For `CCS(=O)(=O)c1cc(-c2cc(F)cc(F)c2)cnc1-c1ccn2nc(C(F)(F)F)cc2n1` [Compound 125, 5-(5-(3,5-difluorophenyl)-3-(ethylsulfonyl)pyridin-2-yl)-2-(trifluoromethyl)pyrazolo[1,5-a]pyrimidine], the mortality at 300 ppm in test [1] and in test [2] was not below 70% in each case.
Consider `CCS(=O)(=O)c1cc(-c2cc(Cl)cc(Cl)c2)cnc1-c1ccn2nc(C(F)(F)F)cc2n1` [Compound 76, 5-(5-(3,5-dichlorophenyl)-3-(ethylsulfonyl)pyridin-2-yl)-2-(trifluoromethyl)pyrazolo[1,5-a]pyrimidine], for which the mortality at 300 ppm in test [3] and in test [1] was not below 70% throughout.
As to `CCS(=O)(=O)c1cc(-c2cccc(C(F)(F)F)c2)cnc1-c1ccn2nc(C(F)(F)F)cc2n1` [Compound 156, 5-(3-(ethylsulfonyl)-5-(3-(trifluoromethyl)phenyl)pyridin-2-yl)-2-(trifluoromethyl)pyrazolo[1,5-a]pyrimidine], the mortality at 300 ppm in test [3], in test [1] and in test [2] was not below 70% each time.
As to `CCS(=O)(=O)c1cc(-c2ccc(Cl)c(F)c2)cnc1-c1ccn2nc(C(F)(F)F)cc2n1` [Compound 126, 5-(5-(4-chloro-3-fluorophenyl)-3-(ethylsulfonyl)pyridin-2-yl)-2-(trifluoromethyl)pyrazolo[1,5-a]pyrimidine], the mortality at 300 ppm in test [3], in test [1] and in test [2] was not below 70% throughout.
In the case of `CCS(=O)(=O)c1cc(-c2ccc(F)c(Cl)c2)cnc1-c1ccn2nc(C(F)(F)F)cc2n1` [Compound 127, 5-(5-(3-chloro-4-fluorophenyl)-3-(ethylsulfonyl)pyridin-2-yl)-2-(trifluoromethyl)pyrazolo[1,5-a]pyrimidine], the mortality at 300 ppm in test [3], in test [1] and in test [2] was not below 70% each time.
Regarding `CCS(=O)(=O)c1ccc(-c2ccc(OC(F)(F)F)cc2)nc1-c1ccn2nc(C(F)(F)F)cc2n1` [Compound 17, 5-(3-(ethylsulfonyl)-6-(4-(trifluoromethoxy)phenyl)pyridin-2-yl)-2-(trifluoromethyl)pyrazolo[1,5-a]pyrimidine], the mortality at 300 ppm in test [1] and in test [2] was not below 70% throughout.
Consider `CCS(=O)(=O)c1cc(OC(F)F)cnc1-c1ccn2nc(C(F)(F)F)cc2n1` [Compound 229, 5-(5-(difluoromethoxy)-3-(ethylsulfonyl)pyridin-2-yl)-2-(trifluoromethyl)pyrazolo[1,5-a]pyrimidine], for which the mortality at 300 ppm in test [3] and in test [2] was not below 70% in each case.
On to `CCS(=O)(=O)c1ccc(-n2ccc(C(F)(F)F)n2)nc1-c1ccn2nc(C(F)(F)F)cc2n1` [Compound 34, 5-(3-(ethylsulfonyl)-6-(3-(trifluoromethyl)-1H-pyrazol-1-yl)pyridin-2-yl)-2-(trifluoromethyl)pyrazolo[1,5-a]pyrimidine], for which the mortality at 300 ppm in test [3] and in test [2] was not below 70% each time.
In the case of `CCS(=O)(=O)c1cc(-c2ccn3nc(C(F)(F)F)cc3n2)cnc1-n1ccc(C(F)(F)F)n1` [Compound 37, 5-(5-(ethylsulfonyl)-6-(3-(trifluoromethyl)-1H-pyrazol-1-yl)pyridin-3-yl)-2-(trifluoromethyl)pyrazolo[1,5-a]pyrimidine], the mortality at 300 ppm in test [1] and in test [2] was not below 70% each time.
As to `CCS(=O)(=O)c1cc(C=CC2CC2)cnc1-c1ccn2nc(C(F)(F)F)cc2n1` [Compound 205, 5-(5-(2-cyclopropylvinyl)-3-(ethylsulfonyl)pyridin-2-yl)-2-(trifluoromethyl)pyrazolo[1,5-a]pyrimidine], the mortality at 300 ppm in test [1] and in test [2] was not below 70% each time.
On to `CCS(=O)(=O)c1cc(-n2cc(F)cn2)cnc1-c1ccn2nc(C(F)(F)F)cc2n1` [Compound 70, 5-(3-(ethylsulfonyl)-5-(4-fluoro-1H-pyrazol-1-yl)pyridin-2-yl)-2-(trifluoromethyl)pyrazolo[1,5-a]pyrimidine], for which the mortality at 300 ppm in test [3] and in test [2] was not below 70% in each case.
Take `CCS(=O)(=O)c1ccc(-n2ncn(-c3cc(Cl)cc(Cl)c3)c2=O)nc1-c1ccn2nc(C(F)(F)F)cc2n1` [Compound 8, 4-(3,5-dichlorophenyl)-2-(5-(ethylsulfonyl)-6-(2-(trifluoromethyl)pyrazolo[1,5-a]pyrimidin-5-yl)pyridin-2-yl)-2,4-dihydro-3H-1,2,4-triazol-3-one]: the mortality at 300 ppm in test [3] and in test [2] was not below 70% throughout.
For the molecule `CCS(=O)(=O)c1cc(-c2ccn3nc(C(F)(F)F)cc3n2)cnc1-n1nc2ccc(C(F)(F)F)cn2c1=O` [Compound 75, 2-(3-(ethylsulfonyl)-5-(2-(trifluoromethyl)pyrazolo[1,5-a]pyrimidin-5-yl)pyridin-2-yl)-6-(trifluoromethyl)-[1,2,4]triazolo[4,3-a]pyridin-3(2H)-one], the mortality at 300 ppm in test [3] and in test [2] was not below 70% each time.
As for `CCS(=O)(=O)c1cc(-c2ccn3nc(C(F)(F)F)cc3n2)cnc1-n1cncn1` [Compound 31, 5-(5-(ethylsulfonyl)-6-(1H-1,2,4-triazol-1-yl)pyridin-3-yl)-2-(trifluoromethyl)pyrazolo[1,5-a]pyrimidine], the mortality at 300 ppm in test [2] is not below 70%.
In the case of `CCS(=O)(=O)c1ccc(-n2ncn(-c3ccc(Cl)cc3)c2=O)nc1-c1ccn2nc(C(F)(F)F)cc2n1` [Compound 7, 4-(4-chlorophenyl)-2-(5-(ethylsulfonyl)-6-(2-(trifluoromethyl)pyrazolo[1,5-a]pyrimidin-5-yl)pyridin-2-yl)-2,4-dihydro-3H-1,2,4-triazol-3-one], the mortality at 300 ppm in test [3] and in test [2] was not below 70% each time.
Turning to `CCS(=O)(=O)c1ccc(NC(C)C)nc1-c1ccn2nc(C(F)(F)F)cc2n1` [Compound 241, 5-(ethylsulfonyl)-N-isopropyl-6-(2-(trifluoromethyl)pyrazolo[1,5-a]pyrimidin-5-yl)pyridin-2-amine], the mortality at 300 ppm in test [2] is not below 70%.
The same measure, in the same setting: in the case of `CCS(=O)(=O)c1cc(-n2cnc(Cl)n2)cnc1-c1ccn2nc(C(F)(F)F)nc2n1` [Compound 148, 5-(5-(3-chloro-1H-1,2,4-triazol-1-yl)-3-(ethylsulfonyl)pyridin-2-yl)-2-(trifluoromethyl)-[1,2,4]triazolo[1,5-a]pyrimidine] it was not below 70%.
Consider `CCc1ccc(S(=O)(=O)CC)c(-c2ccn3nc(C(F)(F)F)cc3n2)n1` [Compound 209, 5-(6-ethyl-3-(ethylsulfonyl)pyridin-2-yl)-2-(trifluoromethyl)pyrazolo[1,5-a]pyrimidine], for which the mortality at 300 ppm in test [2] is not below 70%.
Take `CCS(=O)(=O)c1cc(-c2ccc(Cl)c(F)c2)cnc1-c1ccn2nc(C(F)(F)F)nc2n1` [Compound 162, 5-(5-(4-chloro-3-fluorophenyl)-3-(ethylsulfonyl)pyridin-2-yl)-2-(trifluoromethyl)-[1,2,4]triazolo[1,5-a]pyrimidine]: the mortality at 300 ppm in test [2] was not below 70%.
